Measured values from patent US10597388B2, “Pyridazinone herbicides” (FMC CORPORATION, priority 2014, dated 2020).

Assays:
Test in all cases: Test C greenhouse herbicide test, pre- and postemergence
Format in all cases: in vivo
[1] = test system: nutsedge, yellow (yellow nutsedge, Cyperus esculentus)
Procedure, shortened: (§1)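 Seeds sown in loam–sand blend treated preemergence; plants in peat-based medium sprayed postemergence at 2–18 cm (1- to 4-leaf stage); chemicals in non-phytotoxic solvent with surfactant. Greenhouse 13–15 d, then visual rating versus controls on 0–100 scale (0 no effect, 100 complete control).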

[2] = test system: blackgrass (Alopecurus myosuroides)
Procedure, shortened: as §1

[3] = test system: waterhemp (common waterhemp, Amaranthus rudis)
Procedure, shortened: as §1

[4] = test system: oilseed rape (Brassica napus)
Procedure, shortened: as §1

[5] = test system: lambsquarters (Chenopodium album)
Procedure, shortened: as §1

[6] = test system: pigweed (Amaranthus retroflexus)
Procedure, shortened: as §1

[7] = test system: crabgrass, large (large crabgrass, Digitaria sanguinalis)
Procedure, shortened: as §1

[8] = test system: wheat (winter wheat, Triticum aestivum)
Procedure, shortened: as §1

[9] = test system: foxtail, giant (giant foxtail, Setaria faberii)
Procedure, shortened: as §1

[10] = test system: morningglory (Ipomoea coccinea)
Procedure, shortened: as §1

[11] = test system: ragweed (common ragweed, Ambrosia elatior)
Procedure, shortened: as §1

[12] = test system: barnyardgrass (Echinochloa crus-galli)
Procedure, shortened: as §1

[13] = test system: velvetleaf (Abutilon theophrasti)
Procedure, shortened: as §1

[14] = test system: johnsongrass (Sorghum halepense)
Procedure, shortened: as §1

[15] = test system: galium (catchweed bedstraw, Galium aparine)
Procedure, shortened: as §1

soybean (Glycine max) = test system: soybean (Glycine max)
Procedure, shortened: as §1

[16] = Postemergence, 125 g ai/ha, scale 0 to 100, 0 is no effect, 100 is complete control
[17] = Postemergence, 250 g ai/ha, scale 0 to 100, 0 no effect, 100 complete control, 13 to 15 d
[18] = Preemergence, 31 g ai/ha, scale 0 to 100, 0 is no effect, 100 is complete control
[19] = Preemergence, 62 g ai/ha, scale 0 to 100, 0 is no effect, 100 is complete control
[20] = Preemergence, 125 g ai/ha, scale 0 to 100, 0 is no effect, 100 is complete control
[21] = Preemergence, 250 g ai/ha, scale 0 to 100 (0 no effect, 100 complete control)
[22] = postemergence, 62 g ai/ha, scale 0 to 100, 0 no effect, 100 complete control
[23] = Postemergence, 31 g ai/ha, 0 to 100 scale (0 no effect, 100 complete control)

Cc1cc(C)c2sc(C)c(-c3c(OC(=O)OCCCl)c(C)nn(C)c3=O)c2c1 [Compound 85]
Plant response rating, Nutsedge, Yellow [1, 16]: 95 | Plant response rating, Nutsedge, Yellow [1, 17]: 90 | Plant response rating, Nutsedge, Yellow [1, 18]: 70 | Plant response rating, Nutsedge, Yellow [1, 19]: 85 | Plant response rating, Nutsedge, Yellow [1, 20]: 75 | Nutsedge, Yellow plant response rating [1, 21]: 80 | Nutsedge, Yellow plant response rating [1, 22]: 85 | Blackgrass plant response rating [2, 23]: 70 | Plant response rating, Blackgrass [2, 16]: 90 | Plant response rating, Blackgrass [2, 17]: 90 | Plant response rating, Blackgrass [2, 18]: 50 | Plant response rating, Blackgrass [2, 19]: 85 | Plant response rating, Blackgrass [2, 20]: 90 | Blackgrass plant response rating [2, 21]: 90 | Blackgrass plant response rating [2, 22]: 80 | Plant response rating, Waterhemp [3, 16]: 85 | Plant response rating, Waterhemp [3, 17]: 85 | Plant response rating, Waterhemp [3, 18]: 60 | Plant response rating, Waterhemp [3, 19]: 80 | Plant response rating, Waterhemp [3, 20]: 90 | Waterhemp plant response rating [3, 21]: 100 | Waterhemp plant response rating [3, 22]: 65 | Plant response rating, Oilseed Rape [4, 16]: 10 | Plant response rating, Oilseed Rape [4, 17]: 15 | Plant response rating, Oilseed Rape [4, 18]: 5 | Plant response rating, Oilseed Rape [4, 19]: 85 | Plant response rating, Oilseed Rape [4, 20]: 40 | Oilseed Rape plant response rating [4, 21]: 90 | Oilseed Rape plant response rating [4, 22]: 10 | Plant response rating, Lambsquarters [5, 16]: 100 | Plant response rating, Lambsquarters [5, 17]: 100 | Plant response rating, Lambsquarters [5, 18]: 85 | Plant response rating, Lambsquarters [5, 19]: 90 | Plant response rating, Lambsquarters [5, 20]: 90 | Lambsquarters plant response rating [5, 21]: 100 | Lambsquarters plant response rating [5, 22]: 98 | Plant response rating, Pigweed [6, 16]: 85 | Plant response rating, Pigweed [6, 17]: 90 | Plant response rating, Pigweed [6, 18]: 100 | Plant response rating, Pigweed [6, 19]: 100 | Plant response rating, Pigweed [6, 20]: 100 | Pigweed plant response rating [6, 21]: 100 | Pigweed plant response rating [6, 22]: 85 | Plant response rating, Crabgrass, Large [7, 16]: 40 | Plant response rating, Crabgrass, Large [7, 17]: 45 | Plant response rating, Crabgrass, Large [7, 18]: 80 | Plant response rating, Crabgrass, Large [7, 19]: 85 | Plant response rating, Crabgrass, Large [7, 20]: 80 | Crabgrass, Large plant response rating [7, 21]: 85 | Crabgrass, Large plant response rating [7, 22]: 30 | Plant response rating, Wheat [8, 16]: 0 | Plant response rating, Wheat [8, 17]: 0 | Plant response rating, Wheat [8, 18]: 0 | Plant response rating, Wheat [8, 19]: 0 | Plant response rating, Wheat [8, 20]: 0 | Wheat plant response rating [8, 21]: 5 | Wheat plant response rating [8, 22]: 0 | Plant response rating, Foxtail, Giant [9, 16]: 90 | Plant response rating, Foxtail, Giant [9, 17]: 90 | Plant response rating, Foxtail, Giant [9, 18]: 90 | Plant response rating, Foxtail, Giant [9, 19]: 98 | Plant response rating, Foxtail, Giant [9, 20]: 100 | Foxtail, Giant plant response rating [9, 21]: 100 | Foxtail, Giant plant response rating [9, 22]: 85 | Plant response rating, Morningglory [10, 16]: 100 | Plant response rating, Morningglory [10, 17]: 100 | Plant response rating, Morningglory [10, 18]: 85 | Plant response rating, Morningglory [10, 19]: 90 | Plant response rating, Morningglory [10, 20]: 95 | Morningglory plant response rating [10, 21]: 98 | Morningglory plant response rating [10, 22]: 98 | Plant response rating, Ragweed [11, 16]: 85 | Plant response rating, Ragweed [11, 17]: 90 | Plant response rating, Ragweed [11, 18]: 80 | Plant response rating, Ragweed [11, 19]: 90 | Plant response rating, Ragweed [11, 20]: 98 | Ragweed plant response rating [11, 21]: 98 | Ragweed plant response rating [11, 22]: 85 | Barnyardgrass plant response rating [12, 23]: 25 | Plant response rating, Barnyardgrass [12, 16]: 40 | Plant response rating, Barnyardgrass [12, 17]: 50 | Plant response rating, Barnyardgrass [12, 18]: 35 | Plant response rating, Barnyardgrass [12, 19]: 60 | Plant response rating, Barnyardgrass [12, 20]: 80 | Barnyardgrass plant response rating [12, 21]: 90 | Barnyardgrass plant response rating [12, 22]: 45 | Plant response rating, Velvetleaf [13, 16]: 85 | Plant response rating, Velvetleaf [13, 17]: 95 | Plant response rating, Velvetleaf [13, 18]: 50 | Plant response rating, Velvetleaf [13, 19]: 80 | Plant response rating, Velvetleaf [13, 20]: 85 | Velvetleaf plant response rating [13, 21]: 90 | Velvetleaf plant response rating [13, 22]: 85 | Plant response rating, Johnsongrass [14, 16]: 50 | Plant response rating, Johnsongrass [14, 17]: 25 | Plant response rating, Johnsongrass [14, 18]: 40 | Plant response rating, Johnsongrass [14, 19]: 30 | Plant response rating, Johnsongrass [14, 20]: 65 | Johnsongrass plant response rating [14, 21]: 40 | Johnsongrass plant response rating [14, 22]: 15 | Plant response rating, Galium [15, 16]: 100 | Plant response rating, Galium [15, 17]: 100 | Plant response rating, Galium [15, 18]: 90 | Plant response rating, Galium [15, 19]: 90 | Plant response rating, Galium [15, 20]: 95 | Galium plant response rating [15, 21]: 95 | Galium plant response rating [15, 22]: 100 | Plant response rating, Soybean (soybean (Glycine max); [16]): 0 | Plant response rating, Soybean (soybean (Glycine max); [17]): 15 | Plant response rating, Soybean (soybean (Glycine max); [18]): 0 | Plant response rating, Soybean (soybean (Glycine max); [19]): 0 | Plant response rating, Soybean (soybean (Glycine max); [20]): 0 | Soybean plant response rating (soybean (Glycine max); [21]): 0 | Soybean plant response rating (soybean (Glycine max); [22]): 0
